Consider 31 compounds from patent US8178490B2, “Polybasic bacterial efflux pump inhibitors and therapeutic uses thereof” (priority 2007, dated 2012).

The data set is described as follows: Rat serum pharmacokinetics after 1.5-hour IV infusion. The class given is in vivo. To be noted: two-compartment model; for Cmax / clearance: 1.5-hour IV infusion in 0.9% saline, dose (mg/kg) differs per compound; for clearance: read-out: Clearance (free drug clearance) (converted); for pharmacokinetic profile: […] IV infusion in 0.9% saline, total dose 2, 5, 10 or 20 mg/kg. The method, then: In the experiment depicted in Table 7, above, rat serum pharmacokinetics of selected inhibitor compounds was evaluated after 1.5-hour IV infusion of 1.5 ml solution of corresponding efflux pump inhibitor in 0.9% saline. Depending on the concentration used the total infused dose was 2, 5, 10 or 20 mg/kg. A two-compartment model was used to fit the data and calculate PK parameters.

By Cmax is commonly meant the peak of the concentration-time curve. The term clearance denotes the rate of elimination divided by the concentration. Turning to `Cl.Cl.Cl.Cl.N[C@@H](CCC(=O)N1C[C@H](N)[C@@H](N)C1)C(=O)N[C@H](CCc1ccccc1)C(=O)Nc1cnc2ccccc2c1` [Compound 41, 3-[(1S)-1-{[(1R)-1-carbamoyl-3-phenylpropyl]carbamoyl}-4-[(3S,4S)-3,4-diazaniumylpyrrolidin-1-yl]-4-oxobutan-1-aminium]quinolin-1-ium tetrachloride], the peak level (Cmax) was 8100 ng/mL and the clearance was 45.3 mL/min/kg.

For `NCCN(CCN)C(=O)C[C@H](N)C(=O)N[C@@H](CCc1ccccc1)C(=O)NCc1ccc(Oc2ccccn2)cc1` [Compound 110], the highest level (Cmax) was 1890 ng/mL and the clearance is 91.2 mL/min/kg.

As to `Cl.Cl.Cl.Cl.N[C@@H](CCC(=O)N1C[C@H](N)[C@@H](N)C1)C(=O)N[C@H](Cc1ccc(C(F)(F)F)cc1)C(=O)Nc1cnc2ccccc2c1` [Compound 33, 3-[(1S)-1-{[(1R)-1-carbamoyl-2-[4-(trifluoromethyl)phenyl]ethyl]carbamoyl}-4-[(3S,4S)-3,4-diazaniumylpyrrolidin-1-yl]-4-oxobutan-1-aminium]quinolin-1-ium tetrachloride], the Cmax was determined as 3980 ng/mL and the clearance was 105 mL/min/kg.

On to `Cl.Cl.Cl.Cl.NCCN(CCN)C(=O)C[C@H](N)C(=O)N[C@H](C(=O)Nc1cnc2ccccc2c1)C(O)c1ccc(C(F)(F)F)cc1` (stereo partly drawn) [Compound 169, 3-[(1S)-2-[bis(2-azaniumylethyl)carbamoyl]-1-{[(1S)-1-carbamoyl-2-hydroxy-2-[4-(trifluoromethyl)phenyl]ethyl]carbamoyl}ethan-1-aminium]quinolin-1-ium tetrachloride], for which the Cmax was determined as 22900 ng/mL and the clearance is 31.3 mL/min/kg.

On to `Cl.Cl.Cl.Cl.N[C@@H]1CN(C(=O)CC[C@H](N)C(=O)N[C@H](Cc2ccc(C(F)(F)F)cc2)C(=O)Nc2cnc3ccccc3c2)C[C@@H]1N` [Compound 30, 3-[(1S)-1-{[(1R)-1-carbamoyl-2-[4-(trifluoromethyl)phenyl]ethyl]carbamoyl}-4-[(3R,4S)-3,4-diazaniumylpyrrolidin-1-yl]-4-oxobutan-1-aminium]quinolin-1-ium tetrachloride], for which the Cmax was found to be 7610 ng/mL and the clearance is 56 mL/min/kg.

As for `CC(C)c1ccc(NC(=O)[C@H](CCc2ccccc2)NC(=O)[C@@H](N)CC(=O)N(CCN)CCN)cc1` [Compound 91], the highest level (Cmax) was 2670 ng/mL and the clearance was 98.2 mL/min/kg.

In the case of `NCCN(CCN)C(=O)C[C@H](N)C(=O)N[C@@H](CCc1ccccc1)C(=O)Nc1ccc2cnccc2c1` [Compound 49], the concentration peaked (Cmax) at 2390 ng/mL and the clearance is 70.2 mL/min/kg.

As for `NCCN(CCN)C(=O)C[C@H](N)C(=O)N[C@@H](CCc1ccccc1)C(=O)NCc1ccc(OC2CCOCC2)cc1` [Compound 133], the Cmax turned out to be 1270 ng/mL and the clearance is 88.3 mL/min/kg.

On to `CC(C)Oc1ccc(NC(=O)[C@H](CCc2ccccc2)NC(=O)[C@@H](N)CC(=O)N(CCN)CCN)c(F)c1` [Compound 215], for which the Cmax was determined as 690 ng/mL and the clearance was 93.3 mL/min/kg.

`Cc1cc(CNC(=O)[C@H](CCc2ccccc2)NC(=O)[C@@H](N)CC(=O)N(CCN)CCN)c(C(F)(F)F)o1` [Compound 67]: the Cmax worked out at 2980 ng/mL and the clearance was 51.7 mL/min/kg.

For `NCCN(CCN)C(=O)C[C@H](N)C(=O)N[C@@H](CCc1ccccc1)C(=O)NCc1ccc(OC(F)(F)F)cc1` [Compound 95], the Cmax turned out to be 1750 ng/mL and the clearance was 30.2 mL/min/kg.

For `Cl.Cl.Cl.Cl.NCCN(CCN)C(=O)CC[C@H](N)C(=O)N[C@H](Cc1ccc(OC(F)(F)F)cc1)C(=O)Nc1cnc2ccccc2c1` [Compound 31, 3-[(1S)-3-[bis(2-azaniumylethyl)carbamoyl]-1-{[(1R)-1-carbamoyl-2-[4-(trifluoromethoxy)phenyl]ethyl]carbamoyl}propan-1-aminium]quinolin-1-ium tetrachloride], the concentration peaked (Cmax) at 21900 ng/mL and the clearance is 30 mL/min/kg.

For `NCCN(CCN)C(=O)C[C@H](N)C(=O)N[C@@H](CCc1ccccc1)C(=O)NCc1c(Cl)cccc1Cl` [Compound 224], the concentration peaked (Cmax) at 1590 ng/mL and the clearance was 66.2 mL/min/kg.

As to `Cl.Cl.Cl.Cl.NCCN(CCN)CCC[C@H](N)C(=O)N[C@H](CCc1ccccc1)C(=O)Nc1cnc2ccccc2c1` [Compound 46, 3-[(1S)-4-[bis(2-azaniumylethyl)amino]-1-{[(1R)-1-carbamoyl-3-phenylpropyl]carbamoyl}butan-1-aminium]quinolin-1-ium tetrachloride], the Cmax was 4000 ng/mL, the clearance is 13.5 mL/min/kg and the pharmacokinetic profile entry is “particularly attractive pharmacokinetic profiles”.

Regarding `Cl.Cl.Cl.Cl.NCCN(CCN)C(=O)CC[C@H](N)C(=O)N[C@H](CCc1ccccc1)C(=O)Nc1cnc2ccccc2c1` [Compound 47, 3-[(1S)-3-[bis(2-azaniumylethyl)carbamoyl]-1-{[(1R)-1-carbamoyl-3-phenylpropyl]carbamoyl}propan-1-aminium]quinolin-1-ium tetrachloride], the Cmax worked out at 8100 ng/mL and the clearance was 28.3 mL/min/kg.

Turning to `Cc1cc(C)c(NC(=O)[C@H](CCc2ccccc2)NC(=O)[C@@H](N)CC(=O)N(CCN)CCN)c(C)c1` [Compound 88], the Cmax was found to be 2500 ng/mL and the clearance is 28 mL/min/kg.

In the case of `Cl.Cl.Cl.Cl.NCCN(CCN)C(=O)C[C@H](N)C(=O)N[C@H](CCc1ccccc1)C(=O)Nc1cnc2ccccc2c1` [Compound 48, 3-[(1S)-2-[bis(2-azaniumylethyl)carbamoyl]-1-{[(1R)-1-carbamoyl-3-phenylpropyl]carbamoyl}ethan-1-aminium]quinolin-1-ium tetrachloride], the Cmax came out at 7200 ng/mL, the clearance was 26 mL/min/kg and the pharmacokinetic profile result is listed as “particularly attractive pharmacokinetic profiles”.

With `Cl.Cl.Cl.Cl.NCCN(CCN)C(=O)C[C@H](N)C(=O)NCC(=O)N[C@@H](CCc1ccccc1)C(=O)Nc1cnc2ccccc2c1` [Compound 348, 3-[(1S)-2-[bis(2-azaniumylethyl)carbamoyl]-1-[({[(1S)-1-carbamoyl-3-phenylpropyl]carbamoyl}methyl)carbamoyl]ethan-1-aminium]quinolin-1-ium tetrachloride], the Cmax amounted to 2200 ng/mL and the clearance was 328 mL/min/kg.

`NCCN(CCN)C(=O)C[C@H](N)C(=O)N[C@@H](CCc1ccccc1)C(=O)Nc1cccc(C(F)(F)F)c1` [Compound 90]: the concentration peaked (Cmax) at 1220 ng/mL and the clearance was 103 mL/min/kg.

Consider `CCCc1ccccc1NC(=O)[C@H](CCc1ccccc1)NC(=O)[C@@H](N)CC(=O)N(CCN)CCN` [Compound 271], for which the concentration peaked (Cmax) at 340 ng/mL and the clearance is 78.5 mL/min/kg.

On to `CC(C)Oc1ccc(NC(=O)[C@H](CCc2ccccc2)NC(=O)[C@@H](N)CC(=O)N(CCN)CCN)cc1` [Compound 214], for which the concentration peaked (Cmax) at 1540 ng/mL and the clearance is 92.2 mL/min/kg.

In the case of `NCCN(CCN)C(=O)C[C@@H](N)C(=O)N[C@H](CCc1ccccc1)C(=O)Nc1cnc2ccccc2c1` [Compound 44, 3-[(1R)-2-[bis(2-azaniumylethyl)carbamoyl]-1-{[(1R)-1-carbamoyl-3-phenylpropyl]carbamoyl}ethan-1-aminium]quinolin-1-ium tetrachloride], the concentration peaked (Cmax) at 2680 ng/mL and the clearance is 24.7 mL/min/kg.

For `Cc1ccc(C)c(CNC(=O)[C@H](CCc2ccccc2)NC(=O)[C@@H](N)CC(=O)N(CCN)CCN)c1` [Compound 96], the peak level (Cmax) was 3850 ng/mL and the clearance is 51.8 mL/min/kg.

Regarding `Cc1ccc(NC(=O)[C@H](CCc2ccccc2)NC(=O)[C@@H](N)CC(=O)N(CCN)CCN)cc1` [Compound 77], the highest level (Cmax) was 2960 ng/mL and the clearance is 63.2 mL/min/kg.

For `Cl.Cl.Cl.Cl.NCCN(CCN)C(=O)C[C@H](N)C(=O)N[C@H](Cc1ccc(C(F)(F)F)cc1)C(=O)Nc1cnc2ccccc2c1` [Compound 359, 3-[(1S)-2-[bis(2-azaniumylethyl)carbamoyl]-1-{[(1R)-1-carbamoyl-2-[4-(trifluoromethyl)phenyl]ethyl]carbamoyl}ethan-1-aminium]quinolin-1-ium tetrachloride], the Cmax was found to be 5030 ng/mL and the clearance is 48.2 mL/min/kg.

With `CC(C)Oc1ccc(CNC(=O)[C@H](CCc2ccccc2)NC(=O)[C@@H](N)CC(=O)N(CCN)CCN)cc1` [Compound 237], the Cmax came out at 1260 ng/mL and the clearance is 70.8 mL/min/kg.

For the compound `COc1cc(OC(F)(F)F)ccc1CNC(=O)[C@H](CCc1ccccc1)NC(=O)[C@@H](N)CC(=O)N(CCN)CCN` [Compound 233], the concentration peaked (Cmax) at 4920 ng/mL and the clearance is 118 mL/min/kg.

Turning to `NCCN(CCN)C(=O)C[C@H](N)C(=O)NCC(=O)N(Cc1ccc(C(F)(F)F)cc1)c1cnc2ccccc2c1` [Compound 357, 3-[(1S)-2-[bis(2-azaniumylethyl)carbamoyl]-1-{[({[4-(trifluoromethyl)phenyl]methyl}carbamoyl)methyl]carbamoyl}ethan-1-aminium]quinolin-1-ium tetrachloride], the Cmax turned out to be 660 ng/mL and the clearance is 145 mL/min/kg.

Turning to `NCCN(CCN)C(=O)C[C@H](N)C(=O)N[C@@H](CCc1ccccc1)C(=O)NCc1ccc(F)c(C(F)(F)F)c1` [Compound 102], the Cmax was determined as 5050 ng/mL and the clearance is 43 mL/min/kg.

Consider `NCCN(CCN)C(=O)C[C@H](N)C(=O)N[C@@H](CCc1ccccc1)C(=O)Nc1cc(Cl)c(Cl)cc1Cl` [Compound 87], for which the concentration peaked (Cmax) at 11000 ng/mL and the clearance is 64.3 mL/min/kg.

On to `CCOc1ccc(NC(=O)[C@H](CCc2ccccc2)NC(=O)[C@@H](N)CC(=O)N(CCN)CCN)cc1` [Compound 85], for which the highest level (Cmax) was 13900 ng/mL and the clearance is 50 mL/min/kg.
